Measurements as given in US8076487B2, “Pyridone derivative and herbicide” (Kumiai Chemical Industry Co., Ltd., priority 2006, dated 2011).

Assays:
Assay type in all cases: in vivo
[1] = tested on: green foxtail (Setaria viridis (L.) P. Beauv.); assay: Test Example 2: herbicidal effect by soil application to upland field; details: soil surface spray, upland field soil, 1,000 g active ingredient per hectare, 21st day after application
Method in brief: (§1)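 After sowing and covering, the soil received an even aqueous spray of wettable powder at a rate of 1,000 g active ingredient/ha (1,000 L/ha). Ratings of herbicidal effect followed a standard scale 21 days post-treatment, with plants held in a greenhouse.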

[2] = tested on: barnyardgrass (Echinochloa crus-galli (L.) P. Beauv. var. crus-galli); assay: as above; details: soil surface spray, upland field soil, 1,000 g active ingredient per hectare, 21st day after application
Method in brief: as §1

[3] = tested on: slender amaranth (Amaranthus viridis L.); assay: as above; details: soil surface spray, upland field soil, 1,000 g active ingredient per hectare, 21st day after application
Method in brief: as §1

[4] = tested on: velvetleaf (Abutilon theophrasti medicus); assay: as above; details: soil surface spray, upland field soil, 1,000 g active ingredient per hectare, 21st day after application
Method in brief: as §1

[5] = tested on: Japanese bulrush (Scirpus juncoides Roxb.); assay: Test Example 1: herbicidal effect by soil application to paddy field; details: paddy field soil application; active ingredient 1,000 g per 1 hectare; wettable powder added dropwise to water surface the day after sowing; examined on the 21st day after application
Method in brief: (§2)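 Under greenhouse conditions, seeds sown on puddled paddy soil in 100 cm2 pots under 3 cm of standing water received the test compound; injury was assessed with a standard scoring scheme three weeks (day 21) after treatment.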

[6] = tested on: early watergrass (Echinochloa oryzicola Vasing); assay: as above; details: paddy field soil application; active ingredient 1,000 g per 1 hectare; wettable powder added dropwise to water surface the day after sowing; examined on the 21st day after application
Method in brief: as §2

[7] = tested on: heartshape false pickerelweed (Monochoria vaginalis (Burm.f.) C.Presl); assay: as above; details: paddy field soil application; active ingredient 1,000 g per 1 hectare; wettable powder added dropwise to water surface the day after sowing; examined on the 21st day after application
Method in brief: as §2

[8] = tested on: green foxtail (Setaria viridis (L.) P. Beauv.); assay: Test Example 3: herbicidal effect by application to upland field (foliage treatment); details: foliage treatment, plants grown two weeks, 1,000 g active ingredient per hectare, 14th day after application
Method in brief: (§3)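 Two weeks after sowing in field soil under greenhouse conditions, seedlings receive a top-down foliar spray of wettable powder diluted in water at an active-ingredient rate of 1,000 g per hectare. Effect is rated against a standard 14 days post-treatment.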

[9] = tested on: barnyardgrass (Echinochloa crus-galli (L.) P. Beauv. var. crus-galli); assay: as above; details: foliage treatment, plants grown two weeks, 1,000 g active ingredient per hectare, 14th day after application
Method in brief: as §3

[10] = tested on: slender amaranth (Amaranthus viridis L.); assay: as above; details: foliage treatment, plants grown two weeks, 1,000 g active ingredient per hectare, 14th day after application
Method in brief: as §3

[11] = tested on: velvetleaf (Abutilon theophrasti medicus); assay: as above; details: foliage treatment, plants grown two weeks, 1,000 g active ingredient per hectare, 14th day after application
Method in brief: as §3

| Structure (SMILES) | herbicidal effect (index), Green Foxtail [1] | herbicidal effect (index), Barnyardgrass [2] | herbicidal effect (index), Slender Amaranth [3] | herbicidal effect (index), Velvetleaf [4] | herbicidal effect, Scirpus juncoides Roxb. [5] | herbicidal effect, Echinochloa oryzicola Vasing [6] | herbicidal effect, Monochoria vaginalis (Burm. f.) C. Presl [7] | herbicidal effect (index), Green Foxtail [8] | herbicidal effect (index), Barnyardgrass [9] | herbicidal effect (index), Slender Amaranth [10] | herbicidal effect (index), Velvetleaf [11] |
| --- | --- | --- | --- | --- | --- | --- | --- | --- | --- | --- | --- |
| O=C1CCCC(O)=C1C(=O)c1ccc(C(F)(F)F)n(CC(F)(F)F)c1=O [I-10] | 3 (50 to less than 70% of herbicidal effect and crop phytotoxicity) | 5 (90% or more of herbicidal effect and crop phytotoxicity) | 3 (50 to less than 70% of herbicidal effect and crop phytotoxicity) | 5 (90% or more of herbicidal effect and crop phytotoxicity) | 5 (90% or more of herbicidal effect and crop phytotoxicity) | 5 (90% or more of herbicidal effect and crop phytotoxicity) | 5 (90% or more of herbicidal effect and crop phytotoxicity) | 4 (70 to less than 90% of herbicidal effect and crop phytotoxicity) | 5 (90% or more of herbicidal effect and crop phytotoxicity) | 5 (90% or more of herbicidal effect and crop phytotoxicity) | 5 (90% or more of herbicidal effect and crop phytotoxicity) |
| C=CCn1c(C(F)(F)F)ccc(C(=O)C2=C(O)CCCC2=O)c1=O [I-11] | 4 (70 to less than 90% of herbicidal effect and crop phytotoxicity) | 5 (90% or more of herbicidal effect and crop phytotoxicity) | 5 (90% or more of herbicidal effect and crop phytotoxicity) | 5 (90% or more of herbicidal effect and crop phytotoxicity) | 5 (90% or more of herbicidal effect and crop phytotoxicity) | 5 (90% or more of herbicidal effect and crop phytotoxicity) | 5 (90% or more of herbicidal effect and crop phytotoxicity) | 5 (90% or more of herbicidal effect and crop phytotoxicity) | 5 (90% or more of herbicidal effect and crop phytotoxicity) | 5 (90% or more of herbicidal effect and crop phytotoxicity) | 5 (90% or more of herbicidal effect and crop phytotoxicity) |
| O=C1CCCC(O)=C1C(=O)c1ccc(C(F)(F)F)n(C2CC2)c1=O [I-16] | 5 (90% or more of herbicidal effect and crop phytotoxicity) | 5 (90% or more of herbicidal effect and crop phytotoxicity) | 5 (90% or more of herbicidal effect and crop phytotoxicity) | 5 (90% or more of herbicidal effect and crop phytotoxicity) | 5 (90% or more of herbicidal effect and crop phytotoxicity) | 5 (90% or more of herbicidal effect and crop phytotoxicity) | 5 (90% or more of herbicidal effect and crop phytotoxicity) | 5 (90% or more of herbicidal effect and crop phytotoxicity) | 5 (90% or more of herbicidal effect and crop phytotoxicity) | 5 (90% or more of herbicidal effect and crop phytotoxicity) | 5 (90% or more of herbicidal effect and crop phytotoxicity) |
| O=C1CCCC(O)=C1C(=O)c1ccc(C(F)(F)F)n(C2CCCC2)c1=O [I-18] | 5 (90% or more of herbicidal effect and crop phytotoxicity) | 5 (90% or more of herbicidal effect and crop phytotoxicity) | 5 (90% or more of herbicidal effect and crop phytotoxicity) | 5 (90% or more of herbicidal effect and crop phytotoxicity) | 5 (90% or more of herbicidal effect and crop phytotoxicity) | 5 (90% or more of herbicidal effect and crop phytotoxicity) | 5 (90% or more of herbicidal effect and crop phytotoxicity) | 5 (90% or more of herbicidal effect and crop phytotoxicity) | 5 (90% or more of herbicidal effect and crop phytotoxicity) | 5 (90% or more of herbicidal effect and crop phytotoxicity) | 5 (90% or more of herbicidal effect and crop phytotoxicity) |
| O=C1CCCC(O)=C1C(=O)c1ccc(C(F)(F)F)n(CC2CC2)c1=O [I-20] | 5 (90% or more of herbicidal effect and crop phytotoxicity) | 5 (90% or more of herbicidal effect and crop phytotoxicity) | 5 (90% or more of herbicidal effect and crop phytotoxicity) | 5 (90% or more of herbicidal effect and crop phytotoxicity) | 5 (90% or more of herbicidal effect and crop phytotoxicity) | 5 (90% or more of herbicidal effect and crop phytotoxicity) | 5 (90% or more of herbicidal effect and crop phytotoxicity) | 5 (90% or more of herbicidal effect and crop phytotoxicity) | 5 (90% or more of herbicidal effect and crop phytotoxicity) | 5 (90% or more of herbicidal effect and crop phytotoxicity) | 5 (90% or more of herbicidal effect and crop phytotoxicity) |
| O=C1CCCC(O)=C1C(=O)c1ccc(C(F)(F)F)n(CCC=C(Cl)Cl)c1=O [I-26] | 5 (90% or more of herbicidal effect and crop phytotoxicity) | 5 (90% or more of herbicidal effect and crop phytotoxicity) | 5 (90% or more of herbicidal effect and crop phytotoxicity) | 5 (90% or more of herbicidal effect and crop phytotoxicity) | 5 (90% or more of herbicidal effect and crop phytotoxicity) | 5 (90% or more of herbicidal effect and crop phytotoxicity) | 5 (90% or more of herbicidal effect and crop phytotoxicity) | 4 (70 to less than 90% of herbicidal effect and crop phytotoxicity) | 4 (70 to less than 90% of herbicidal effect and crop phytotoxicity) | 5 (90% or more of herbicidal effect and crop phytotoxicity) | 5 (90% or more of herbicidal effect and crop phytotoxicity) |
| COCCn1c(C(F)(F)F)ccc(C(=O)C2=C(O)CCCC2=O)c1=O [I-31] | 5 (90% or more of herbicidal effect and crop phytotoxicity) | 5 (90% or more of herbicidal effect and crop phytotoxicity) | 5 (90% or more of herbicidal effect and crop phytotoxicity) | 5 (90% or more of herbicidal effect and crop phytotoxicity) | 5 (90% or more of herbicidal effect and crop phytotoxicity) | 5 (90% or more of herbicidal effect and crop phytotoxicity) | 5 (90% or more of herbicidal effect and crop phytotoxicity) | 5 (90% or more of herbicidal effect and crop phytotoxicity) | 5 (90% or more of herbicidal effect and crop phytotoxicity) | 5 (90% or more of herbicidal effect and crop phytotoxicity) | 5 (90% or more of herbicidal effect and crop phytotoxicity) |
